Measured values as given in ChEMBL document CHEMBL4840367, “2-Phenylcyclopropylmethylamine Derivatives as Dopamine D2 Receptor Partial Agonists: Design, Synthesis, and Biological Evaluation” (J Med Chem, 2021).
“And” between values parts separate entries of the source, which are not always exact repeats. Equal entries are not always repeated.

Legend:
D(2) dopamine receptor [1] = biological target: T1, D(2) dopamine receptor (Homo sapiens, UniProt P14416); format: cell membranes, HEK293T, Membrane
D(2) dopamine receptor [2] = biological target: T1, D(2) dopamine receptor
D(2) dopamine receptor [3] = biological target: T1, D(2) dopamine receptor; remark: listed apart in the source
[4] = biological target: 5-hydroxytryptamine receptor 2A (Homo sapiens, UniProt P28223); format: cell membranes, HEK293T, Membrane
D(1A) dopamine receptor = D(1A) dopamine receptor (Homo sapiens, UniProt P21728)
[5] = biological target: T2, 5-hydroxytryptamine receptor 2C (Homo sapiens, UniProt P28335)
T2 sequence (P28335 whole entry): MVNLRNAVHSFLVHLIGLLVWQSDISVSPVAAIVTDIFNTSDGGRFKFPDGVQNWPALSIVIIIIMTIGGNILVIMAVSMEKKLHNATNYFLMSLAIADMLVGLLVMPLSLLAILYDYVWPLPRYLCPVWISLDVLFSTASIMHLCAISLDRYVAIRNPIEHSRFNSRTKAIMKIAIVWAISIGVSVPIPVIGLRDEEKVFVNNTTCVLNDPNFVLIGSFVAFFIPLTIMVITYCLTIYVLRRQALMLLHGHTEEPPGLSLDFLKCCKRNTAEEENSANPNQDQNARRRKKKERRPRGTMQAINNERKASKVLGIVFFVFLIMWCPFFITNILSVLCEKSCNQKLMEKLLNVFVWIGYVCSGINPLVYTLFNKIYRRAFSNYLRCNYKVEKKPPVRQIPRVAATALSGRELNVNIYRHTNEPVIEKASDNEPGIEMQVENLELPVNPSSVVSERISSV

D(4) dopamine receptor = biological target: T3, D(4) dopamine receptor (Homo sapiens, UniProt P21917)
T3 sequence (P21917 whole entry): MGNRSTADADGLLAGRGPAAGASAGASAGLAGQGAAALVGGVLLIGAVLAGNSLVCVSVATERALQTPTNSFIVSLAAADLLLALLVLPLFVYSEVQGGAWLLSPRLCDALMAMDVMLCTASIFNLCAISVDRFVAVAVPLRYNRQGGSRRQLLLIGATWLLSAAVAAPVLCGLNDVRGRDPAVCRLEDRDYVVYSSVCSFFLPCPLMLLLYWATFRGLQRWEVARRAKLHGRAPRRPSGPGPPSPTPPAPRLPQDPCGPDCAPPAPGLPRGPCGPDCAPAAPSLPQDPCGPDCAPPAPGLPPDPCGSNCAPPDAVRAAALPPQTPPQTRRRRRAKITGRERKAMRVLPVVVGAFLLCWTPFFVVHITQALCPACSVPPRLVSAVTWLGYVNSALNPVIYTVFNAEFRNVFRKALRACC

in vitro [6] = settings: mouse, liver microsomes
Description: Metabolic stability in mouse liver microsomes assessed as half life preincubated for 5 mins followed by NADPH addition measured after 10 mins by LC-MS analysis

in vitro [7] = settings: human, liver microsomes
Description: Metabolic stability in human liver microsomes assessed as half life preincubated for 5 mins followed by NADPH addition measured after 10 mins by LC-MS analysis

D(1A) dopamine receptor, sequence (P21728 whole entry): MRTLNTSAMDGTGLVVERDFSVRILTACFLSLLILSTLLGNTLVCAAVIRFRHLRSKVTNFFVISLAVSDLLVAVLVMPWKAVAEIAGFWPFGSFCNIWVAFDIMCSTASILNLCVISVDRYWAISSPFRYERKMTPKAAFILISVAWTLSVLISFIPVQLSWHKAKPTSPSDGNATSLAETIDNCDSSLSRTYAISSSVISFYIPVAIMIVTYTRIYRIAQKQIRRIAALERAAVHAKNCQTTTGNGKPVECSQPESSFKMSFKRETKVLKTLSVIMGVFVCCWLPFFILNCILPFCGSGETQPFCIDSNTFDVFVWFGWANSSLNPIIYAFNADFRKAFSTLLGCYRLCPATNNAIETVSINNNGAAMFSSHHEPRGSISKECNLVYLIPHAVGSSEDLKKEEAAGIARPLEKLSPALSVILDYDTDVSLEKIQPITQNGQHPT
5-hydroxytryptamine receptor 2A, sequence (P28223 whole entry): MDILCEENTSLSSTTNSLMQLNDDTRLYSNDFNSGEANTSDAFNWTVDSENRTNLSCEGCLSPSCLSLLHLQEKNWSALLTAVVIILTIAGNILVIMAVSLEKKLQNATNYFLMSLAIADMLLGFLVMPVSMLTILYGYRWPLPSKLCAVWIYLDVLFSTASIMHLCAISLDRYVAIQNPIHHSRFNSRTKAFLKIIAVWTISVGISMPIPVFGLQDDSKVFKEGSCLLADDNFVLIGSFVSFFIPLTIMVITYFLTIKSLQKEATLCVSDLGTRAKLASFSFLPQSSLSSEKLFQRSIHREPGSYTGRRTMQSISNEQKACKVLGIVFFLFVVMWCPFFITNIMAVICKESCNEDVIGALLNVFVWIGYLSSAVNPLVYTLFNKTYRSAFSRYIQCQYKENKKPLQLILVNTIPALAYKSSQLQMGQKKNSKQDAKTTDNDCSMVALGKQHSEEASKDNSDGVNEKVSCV
T1 sequence (P14416 whole entry): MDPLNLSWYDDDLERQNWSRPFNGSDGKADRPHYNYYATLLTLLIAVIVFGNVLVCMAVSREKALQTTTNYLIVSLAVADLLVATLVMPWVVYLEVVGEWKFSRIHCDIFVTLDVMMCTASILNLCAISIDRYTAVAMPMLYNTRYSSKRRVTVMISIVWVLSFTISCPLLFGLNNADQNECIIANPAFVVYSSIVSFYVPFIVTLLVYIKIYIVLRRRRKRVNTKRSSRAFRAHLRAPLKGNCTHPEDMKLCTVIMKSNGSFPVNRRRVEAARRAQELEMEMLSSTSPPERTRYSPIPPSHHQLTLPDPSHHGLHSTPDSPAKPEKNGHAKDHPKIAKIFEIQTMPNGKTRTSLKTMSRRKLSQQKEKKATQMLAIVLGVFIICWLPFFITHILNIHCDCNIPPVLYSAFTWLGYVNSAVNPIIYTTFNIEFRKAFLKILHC

| Compound | Ki (D(2) dopamine receptor [1]) [µM] | EC50 (D(2) dopamine receptor [2]) [µM] | EC50 (D(2) dopamine receptor [3]) | also measured |
| --- | --- | --- | --- | --- |
| COc1ccccc1C1CC1CNCC[C@H]1CC[C@H](NC(=O)c2ccccc2)CC1 (stereo not given in full) | 1.04 | – | – | – |
| COc1ccccc1C1CC1CNCC[C@H]1CC[C@H](NC(=O)N(C)C)CC1 (stereo not given in full) | 1.82 | – | – | – |
| COc1ccccc1C1CC1CNCCCOc1ccc2c(c1)NC(=O)CC2 (stereo not given) | 0.126 | 0.0093 | 0.01 µM | – |
| O=C1CCc2ccc(OCCCCNCC3CC3c3cccc4c3OCCO4)cc2N1 (stereo not given) | 0.384 | 0.0955 | 0.0617 µM | – |
| CSc1ccccc1C1CC1CNCCCCOc1ccc2ccc(=O)[nH]c2c1 (stereo not given) | 0.0952 | 0.00288 | 0.00743 µM | – |
| COc1ccc(F)cc1C1CC1CNCCCOc1ccc2c(c1)NC(=O)CC2 (stereo not given) | 0.0274 | 0.00347 | 0.0149 µM | – |
| COc1ccc(Cl)cc1[C@H]1C[C@@H]1CNCCCCOc1ccc2c(c1)NC(=O)CC2 | – | – | – | Ki [4]: 2.09 µM; Ki (D(1A) dopamine receptor): > 10 µM; Ki [5]: 0.373 µM; Ki (D(4) dopamine receptor): 0.373 µM |
| COc1ccc(Cl)cc1[C@H]1C[C@@H]1CNCCCOc1ccc2ccc(=O)[nH]c2c1 | – | – | – | Ki [4]: 1.16 µM; Ki (D(1A) dopamine receptor): > 10 µM; Ki [5]: 0.604 µM; Ki (D(4) dopamine receptor): 0.604 µM |
| COc1ccccc1C1CC1CNC/C=C/COc1ccc2c(c1)NC(=O)CC2 (stereo not given) | 0.454 | 0.0229 | 0.0613 µM and 0.0603 µM | – |
| CN(C)C(=O)N[C@H]1CC[C@H](CCNCC2CC2c2cccc3c2OCCO3)CC1 (stereo not given in full) | 2.31 | – | – | – |
| COc1ccccc1C1CC1CNCC[C@H]1CC[C@H](NC(=O)N2CCCC2)CC1 (stereo not given in full) | 2.19 | – | – | – |
| O=c1ccc2ccc(OCCCCNCC3CC3c3cccc4c3OCCO4)cc2[nH]1 (stereo not given) | 0.178 | 0.0263 | 0.0234 µM | – |
| CN(CCCCOc1ccc2c(c1)NC(=O)CC2)CC1CC1c1cccc(Cl)c1Cl (stereo not given) | 0.322 | – | – | – |
| CSc1ccccc1C1CC1CNCCCCOc1ccc2c(c1)NC(=O)CC2 (stereo not given) | 0.366 | 0.0189 | 0.0357 µM | – |
| COc1ccccc1C1CC1CNCCCCCOc1ccc2c(c1)NC(=O)CC2 (stereo not given) | 0.259 | 0.891 | 0.417 µM | – |
| COc1ccccc1C1CC1CNCCCOc1ccc2ccc(=O)[nH]c2c1 (stereo not given) | 0.156 | 0.0112 | 0.00708 µM | – |
| COc1ccc(F)cc1[C@H]1C[C@@H]1CNCCCCOc1ccc2ccc(=O)[nH]c2c1 | – | – | – | Ki [4]: 1.41 µM; Ki (D(1A) dopamine receptor): > 10 µM; Ki [5]: 0.122 µM; Ki (D(4) dopamine receptor): 0.122 µM |
| CN(C)C(=O)N[C@H]1CC[C@H](CCN2CCN(c3cccc(Cl)c3Cl)CC2)CC1 [CARIPRAZINE] | – | – | – | half-life at 10 min (in vitro [6]): 22.3 min; half-life at 10 min (in vitro [7]): 32.7 min |
| CN1CCc2ccccc2Cc2[nH]c3ccccc3c2CC1 | – | – | – | Ki (D(1A) dopamine receptor): 0.00293 µM |
| COc1ccccc1C1CC1CNCCCCOc1ccc2ccc(=O)[nH]c2c1 (stereo not given) | 0.0599 | 0.0263 | 0.0324 µM | – |
| CN(C)C(=O)N[C@H]1CC[C@H](CCNCC2CC2c2cccc(Cl)c2Cl)CC1 (stereo not given in full) | 1.33 | – | – | – |
| COc1ccc(F)cc1[C@H]1C[C@@H]1CNCCCOc1ccc2ccc(=O)[nH]c2c1 | – | – | – | Ki [4]: 0.52 µM; Ki (D(1A) dopamine receptor): > 10 µM; Ki [5]: 0.305 µM; Ki (D(4) dopamine receptor): 0.305 µM |
| O=c1ccc2ccc(OCCCCN3CCN(c4cccc5sccc45)CC3)cc2[nH]1 [BREXPIPRAZOLE] | 0.00051 | 0.0102 | 0.0161 µM | half-life at 10 min (in vitro [6]): 17.2 min; half-life at 10 min (in vitro [7]): 27.2 min |
